How the values were obtained:
Format in all cases: functional
Mus musculus [1] = assay: Average body weight in grams on day 5 minus average body weight on day 1 at the dose of 25 mg/kg in experiment 3
Mus musculus [2] = assay: Average body weight in grams on day 5 minus average body weight on day 1 at the dose of 800 mg/kg in experiment 2
Mus musculus [3] = assay: Effect of compound on life span of mice inoculated intravenously with lewis lung carcinoma at the dose of 800 mg/kg in experiment 2; conditions: route intravenous
Mus musculus [4] = assay: Average body weight in grams on day 5 minus average body weight on day 1 at the dose of 400 mg/kg in experiment 2
Mus musculus [5] = assay: Number of survivors out of 10 mice after 60 days infected with lewis lung carcinoma at the dose of 1.56 mg/kg in experiment 4
Mus musculus [6] = assay: Number of survivors out of 10 mice after 60 days infected with lewis lung carcinoma at the dose of 6.25 mg/kg in experiment 4
Mus musculus [7] = assay: Number of survivors out of 10 mice after 60 days infected with lewis lung carcinoma at the dose of 100 mg/kg in experiment 2
Mus musculus [8] = assay: Average body weight in grams on day 5 minus average body weight on day 1 at the dose of 50 mg/kg in experiment 1
Mus musculus [9] = assay: Number of survivors out of 10 mice after 60 days infected with lewis lung carcinoma at the dose of 25 mg/kg in experiment 1
Mus musculus [10] = assay: Average body weight in grams on day 5 minus average body weight on day 1 at the dose of 25 mg/kg in experiment 4
Mus musculus [11] = assay: Average body weight in grams on day 5 minus average body weight on day 1 at the dose of 100 mg/kg in experiment 1
Mus musculus [12] = assay: Average body weight in grams on day 5 minus average body weight on day 1 at the dose of 25 mg/kg in experiment 1
Mus musculus [13] = assay: Average body weight in grams on day 5 minus average body weight on day 1 at the dose of 0.78 mg/kg in experiment 4
Mus musculus [14] = assay: Effect of compound on life span of mice inoculated intravenously with lewis lung carcinoma at the dose of 200 mg/kg in experiment 3; conditions: route intravenous
Mus musculus [15] = assay: Average body weight in grams on day 5 minus average body weight on day 1 at the dose of 1.56 mg/kg in experiment 4
Mus musculus [16] = assay: Number of survivors out of 10 mice after 60 days infected with lewis lung carcinoma at the dose of 12.5 mg/kg in experiment 4
Mus musculus [17] = assay: Average body weight in grams on day 5 minus average body weight on day 1 at the dose of 3.12 mg/kg in experiment 4
Mus musculus [18] = assay: Effect of compound on life span of mice inoculated intravenously with lewis lung carcinoma at the dose of 3.12 mg/kg in experiment 4; conditions: route intravenous
Mus musculus [19] = assay: Number of survivors out of 10 mice after 60 days infected with lewis lung carcinoma at the dose of 800 mg/kg in experiment 3
Mus musculus [20] = assay: Number of survivors out of 10 mice after 60 days infected with lewis lung carcinoma at the dose of 800 mg/kg in experiment 1
Mus musculus [21] = assay: Number of survivors out of 10 mice after 60 days infected with lewis lung carcinoma at the dose of 200 mg/kg in experiment 3
Mus musculus [22] = assay: Number of survivors out of 10 mice after 60 days infected with lewis lung carcinoma at the dose of 200 mg/kg in experiment 2
Mus musculus [23] = assay: Average body weight in grams on day 5 minus average body weight on day 1 at the dose of 400 mg/kg in experiment 3
Mus musculus [24] = assay: Average body weight in grams on day 5 minus average body weight on day 1 at the dose of 6.25 mg/kg in experiment 4
Mus musculus [25] = assay: Number of survivors out of 10 mice after 60 days infected with lewis lung carcinoma at the dose of 50 mg/kg in experiment 2
Mus musculus [26] = assay: Number of survivors out of 10 mice after 60 days infected with lewis lung carcinoma at the dose of 50 mg/kg in experiment 3
Mus musculus [27] = assay: Average body weight in grams on day 5 minus average body weight on day 1 at the dose of 100 mg/kg in experiment 2
Mus musculus [28] = assay: Average body weight in grams on day 5 minus average body weight on day 1 at the dose of 50 mg/kg in experiment 3
Mus musculus [29] = assay: Effect of compound on life span of mice inoculated intravenously with lewis lung carcinoma at the dose of 12.5 mg/kg in experiment 4; conditions: route intravenous
Mus musculus [30] = assay: Number of survivors out of 10 mice after 60 days infected with lewis lung carcinoma at the dose of 400 mg/kg in experiment 2
Mus musculus [31] = assay: Number of survivors out of 10 mice after 60 days infected with lewis lung carcinoma at the dose of 3.12 mg/kg in experiment 4
Mus musculus [32] = assay: Effect of compound on life span of mice inoculated intravenously with lewis lung carcinoma at the dose of 25 mg/kg in experiment 4; conditions: route intravenous
Mus musculus [33] = assay: Average body weight in grams on day 5 minus average body weight on day 1 at the dose of 100 mg/kg in experiment 3
Mus musculus [34] = assay: Average body weight in grams on day 5 minus average body weight on day 1 at the dose of 200 mg/kg in experiment 1
Mus musculus [35] = assay: Number of survivors out of 10 mice after 60 days infected with lewis lung carcinoma at the dose of 0.78 mg/kg in experiment 4
Mus musculus [36] = assay: Effect of compound on life span of mice inoculated intravenously with lewis lung carcinoma at the dose of 800 mg/kg in experiment 3; conditions: route intravenous
Mus musculus [37] = assay: Effect of compound on life span of mice inoculated intravenously with lewis lung carcinoma at the dose of 400 mg/kg in experiment 1; conditions: route intravenous
Mus musculus [38] = assay: Average body weight in grams on day 5 minus average body weight on day 1 at the dose of 25 mg/kg in experiment 2
Mus musculus [39] = assay: Average body weight in grams on day 5 minus average body weight on day 1 at the dose of 400 mg/kg in experiment 1
Mus musculus [40] = assay: Number of survivors out of 10 mice after 60 days infected with lewis lung carcinoma at the dose of 100 mg/kg in experiment 3
Mus musculus [41] = assay: Effect of compound on life span of mice inoculated intravenously with lewis lung carcinoma at the dose of 50 mg/kg in experiment 3; conditions: route intravenous
Mus musculus [42] = assay: Effect of compound on life span of mice inoculated intravenously with lewis lung carcinoma at the dose of 400 mg/kg in experiment 3; conditions: route intravenous
Mus musculus [43] = assay: Average body weight in grams on day 5 minus average body weight on day 1 at the dose of 200 mg/kg in experiment 3
Mus musculus [44] = assay: Average body weight in grams on day 5 minus average body weight on day 1 at the dose of 800 mg/kg in experiment 1
Mus musculus [45] = assay: Average body weight in grams on day 5 minus average body weight on day 1 at the dose of 50 mg/kg in experiment 2
Mus musculus [46] = assay: Number of survivors out of 10 mice after 60 days infected with lewis lung carcinoma at the dose of 100 mg/kg in experiment 1
Mus musculus [47] = assay: Number of survivors out of 10 mice after 60 days infected with lewis lung carcinoma at the dose of 400 mg/kg in experiment 3
Mus musculus [48] = assay: Average body weight in grams on day 5 minus average body weight on day 1 at the dose of 800 mg/kg in experiment 3
Mus musculus [49] = assay: Number of survivors out of 10 mice after 60 days infected with lewis lung carcinoma at the dose of 25 mg/kg in experiment 2
Mus musculus [50] = assay: Effect of compound on life span of mice inoculated intravenously with lewis lung carcinoma at the dose of 50 mg/kg in experiment 2; conditions: route intravenous
Mus musculus [51] = assay: Effect of compound on life span of mice inoculated intravenously with lewis lung carcinoma at the dose of 100 mg/kg in experiment 1; conditions: route intravenous
Mus musculus [52] = assay: Number of survivors out of 10 mice after 60 days infected with lewis lung carcinoma at the dose of 25 mg/kg in experiment 3
Mus musculus [53] = assay: Effect of compound on life span of mice inoculated intravenously with lewis lung carcinoma at the dose of 800 mg/kg in experiment 1; conditions: route intravenous
Mus musculus [54] = assay: Effect of compound on life span of mice inoculated intravenously with lewis lung carcinoma at the dose of 25 mg/kg in experiment 3; conditions: route intravenous
Mus musculus [55] = assay: Effect of compound on life span of mice inoculated intravenously with lewis lung carcinoma at the dose of 0.78 mg/kg in experiment 4; conditions: route intravenous
Mus musculus [56] = assay: Average body weight in grams on day 5 minus average body weight on day 1 at the dose of 200 mg/kg in experiment 2
Mus musculus [57] = assay: Effect of compound on life span of mice inoculated intravenously with lewis lung carcinoma at the dose of 1.56 mg/kg in experiment 4; conditions: route intravenous
Mus musculus [58] = assay: Effect of compound on life span of mice inoculated intravenously with lewis lung carcinoma at the dose of 6.25 mg/kg in experiment 4; conditions: route intravenous
Mus musculus [59] = assay: Number of survivors out of 10 mice after 60 days infected with lewis lung carcinoma at the dose of 800 mg/kg in experiment 2
Mus musculus [60] = assay: Number of survivors out of 10 mice after 60 days infected with lewis lung carcinoma at the dose of 200 mg/kg in experiment 1
Mus musculus [61] = assay: Number of survivors out of 10 mice after 60 days infected with lewis lung carcinoma at the dose of 50 mg/kg in experiment 1
Mus musculus [62] = assay: Average body weight in grams on day 5 minus average body weight on day 1 at the dose of 12.5 mg/kg in experiment 4
Mus musculus [63] = assay: Effect of compound on life span of mice inoculated intravenously with lewis lung carcinoma at the dose of 100 mg/kg in experiment 2; conditions: route intravenous
Mus musculus [64] = assay: Number of survivors out of 10 mice after 60 days infected with lewis lung carcinoma at the dose of 25 mg/kg in experiment 4
Mus musculus [65] = assay: Number of survivors out of 10 mice after 60 days infected with lewis lung carcinoma at the dose of 400 mg/kg in experiment 1

NC(=O)c1csc([C@@H]2O[C@H](CO)[C@@H](O)[C@H]2O)n1 [TIAZOFURIN]
Weight change (Mus musculus [1]): 1.1 g
Weight change (Mus musculus [2]): -2.1 g
Median life span (Mus musculus [3]): 8.5 days
Weight change (Mus musculus [4]): 0.4 g
Survivors (Mus musculus [5]): 0
Survivors (Mus musculus [6]): 0
Survivors (Mus musculus [7]): 9
Weight change (Mus musculus [8]): 2.2 g
Survivors (Mus musculus [9]): 10
Weight change (Mus musculus [10]): 1.5 g
Weight change (Mus musculus [11]): 1.3 g
Weight change (Mus musculus [12]): 1.2 g
Weight change (Mus musculus [13]): 2 g
Median life span (Mus musculus [14]): 16 days
Weight change (Mus musculus [15]): 1.7 g
Survivors (Mus musculus [16]): 7
Weight change (Mus musculus [17]): 1.8 g
Median life span (Mus musculus [18]): 22.8 days
Survivors (Mus musculus [19]): 0
Survivors (Mus musculus [20]): 6
Survivors (Mus musculus [21]): 8
Survivors (Mus musculus [22]): 10
Weight change (Mus musculus [23]): 0.5 g
Weight change (Mus musculus [24]): 2.3 g
Survivors (Mus musculus [25]): 9
Survivors (Mus musculus [26]): 9
Weight change (Mus musculus [27]): 1.3 g
Weight change (Mus musculus [28]): 1.2 g
Median life span (Mus musculus [29]): 39.5 days
Survivors (Mus musculus [30]): 10
Survivors (Mus musculus [31]): 0
Median life span (Mus musculus [32]): 7 days
Weight change (Mus musculus [33]): 0.9 g
Weight change (Mus musculus [34]): 1.3 g
Survivors (Mus musculus [35]): 0
Median life span (Mus musculus [36]): 11.3 days
Median life span (Mus musculus [37]): 9.5 days
Weight change (Mus musculus [38]): 1 g
Weight change (Mus musculus [39]): 1.2 g
Survivors (Mus musculus [40]): 10
Median life span (Mus musculus [41]): 55 days
Median life span (Mus musculus [42]): 20 days
Weight change (Mus musculus [43]): 0.7 g
Weight change (Mus musculus [44]): 1.3 g
Weight change (Mus musculus [45]): 1.6 g
Survivors (Mus musculus [46]): 9
Survivors (Mus musculus [47]): 6
Weight change (Mus musculus [48]): -0.8 g
Survivors (Mus musculus [49]): 10
Median life span (Mus musculus [50]): 47 days
Median life span (Mus musculus [51]): 17 days
Survivors (Mus musculus [52]): 7
Median life span (Mus musculus [53]): 11.3 days
Median life span (Mus musculus [54]): 47 days
Median life span (Mus musculus [55]): 20 days
Weight change (Mus musculus [56]): 0.7 g
Median life span (Mus musculus [57]): 23 days
Median life span (Mus musculus [58]): 25.3 days
Survivors (Mus musculus [59]): 1
Survivors (Mus musculus [60]): 10
Survivors (Mus musculus [61]): 10
Weight change (Mus musculus [62]): 1.9 g
Median life span (Mus musculus [63]): 46 days
Survivors (Mus musculus [64]): 9
Survivors (Mus musculus [65]): 7

Reference: ChEMBL document CHEMBL1121997, “2-beta-D-Ribofuranosylthiazole-4-carboxamide, a novel potential antitumor agent for lung tumors and metastases” (1982)
